Tests used:
[1] = target: VA387 VLPs binding to the A antigen; experiment: Saliva-based blocking EIA: VA387 VLP binding to type A saliva; design: species or system Norovirus; conditions: read-out: EC50 rVA387 A
From the text: (§1) A saliva based blocking assay offers several advantages for anti-Norovirus agent screening. First, the assay is a solid phase blocking assay which is simple and suitable for large scale screening. Second, the source of HBGAs used in the assay was from healthy human volunteers, which is likely to represent the natural forms of Norovirus receptors. Third, the assay is highly sensitive and specific. Finally, a panel of saliva samples can be assembled from different individuals representing different blood types, from which the results obtained in primary screenings can be validated.
(§2) To optimize the blocking assays, we have titrated all reagents used in the assays including the VLPs, the first and second antibodies, the blocking reagent (dried cow milk), and a panel of saliva samples from different donors. […] For comparison of daily results, eight control wells containing everything but compounds were included in each plate, and the assays were considered valid when the daily OD450 variations in these wells were less than 20%. Less than 1% of the total screening runs failed in our study.
(§3) Cow milk contains a large amount of variable proteins, lipids and glycans which can easily interfere with the assay particularly when a low concentration of compounds (μM) was used in our screening. To avoid any false-negative results, the step of addition of blotto in the EIA for all screening experiments in this study was removed.
(§4) Baculovirus-expressed recombinant capsid proteins of four Norovirus strains representing four distinct receptor binding patterns were studied: Norovirus strains Norwalk, VA387, VA207, and MOH. The procedures of production of Norovirus VLPs in insect cell Spodoptera frugiperda (Sf9) have described in “Expression, self-assembly, and antigenicity of the Norwalk virus capsid protein”, J Virol 66:6527-32, Jiang et al (1992), and in “Baculovirus expression and antigenic characterization of the capsid proteins of three Norwalk-like viruses”, Arch Virol 147:119-30, Jiang et al. (2002), the disclosures of which are incorporated herein by reference. Briefly, a cDNA from the 3′ end of the genome containing the viral capsid gene (open reading frame 2 [ORF-2] was cloned from the viral RNA extracted from stool specimens. The recombinant baculoviruses carry the viral capsid genes were constructed from the cloned cDNAs using the Bac to Bac expression system according to the manufacture's instructions (Invitrogen Life Technologies, Carlsbad, Calif.). VLPs were partially purified by sucrose gradient centrifugation and stored at −80° C. Protein concentrations were determined by measuring the optical density at 280 nm (OD280) using a GeneQuant spectrophotometer (Pharmacia, Mich.) and by comparison with a bovine serum albumin standard in a sodium dodecyl sulfate-polyacrylamide gel (25). The purity of VLPs used in this study was over 90% which was determined by SDS-PAGE analysis.
(§5) Saliva samples were collected from healthy adult volunteers under an approval of human subject research protocol by the Institutional Review Board at the Cincinnati Children's Hospital Medical Center. Except for gender and race, no other personal information was collected. A total of 5-10 ml of saliva was collected from each volunteer, and the samples were processed immediately after collection. To avoid potential Norovirus-specific antibodies that may interfere in the receptor binding assays, saliva samples were boiled at 100° C. for 10 min, and then centrifuged at 10,000×g for 5 min. The clear supernatant was stored at −80° C. until use. The HBGA types of the saliva samples were determined by enzyme immune assays with monoclonal antibodies specific to human HBGAs (8). Saliva sample from a type A donor was selected for the primary screening, and a total of 25 saliva samples of known ABO, secretor, and Lewis types were selected for further studies to confirm the primary screening results. […]

[2] = target: VA387 binding to the B antigen; experiment: Saliva-based blocking EIA: VA387 VLP binding to B antigen; design: species or system Norovirus; conditions: for EC50: VA387 VLP binding to B antigen saliva, read-out: EC50 rVA387 B; for inhibition of VA387 binding to the B antigen: one saliva sample
From the text: as §1, §2, §3, §4, §5

[3] = target: VA387 binding to the H antigen; experiment: Saliva-based blocking EIA: VA387 VLP binding to H antigen; design: species or system Norovirus; conditions: for EC50: VA387 VLP binding to H antigen saliva, read-out: EC50 rVA387 H; for inhibition of VA387 binding to the H antigen: one saliva sample
From the text: as §1, §2, §3, §4, §5

[4] = test system: Norwalk virus binding to the A antigen; experiment: Saliva-based blocking EIA: Norwalk virus VLP binding to A antigen; design: species or system Norovirus; conditions: for EC50: Norwalk VLP binding to A antigen, read-out: EC50 rNorwalk A
From the text: as §1, §2, §3, §4, §5

[5] = test system: Norwalk virus binding to the H antigen; experiment: Saliva-based blocking EIA: Norwalk virus VLP binding to H antigen; design: species or system Norovirus; conditions: for EC50: Norwalk VLP binding to H antigen, read-out: EC50 rNorwalk H
From the text: as §1, §2, §3, §4, §5

[6] = target: VA207 binding to the Lewis antigens; experiment: Saliva-based blocking EIA: VA207 VLP binding to Lewis antigens; design: species or system Norovirus; conditions: VA207 VLP binding to Lewis antigen; read-out: EC50 rVA207 Le
From the text: as §1, §2, §3, §4, §5

[7] = target: MOH binding to the A antigen; experiment: Saliva-based blocking EIA: MOH VLP binding to A antigen; design: species or system Norovirus; conditions: MOH VLP binding to type A saliva; read-out: EC50 rMOH A
From the text: as §1, §2, §3, §4, §5

[8] = target: MOH binding to the B antigen; experiment: Saliva-based blocking EIA: MOH VLP binding to B antigen; design: species or system Norovirus; conditions: MOH VLP binding to type B saliva; read-out: EC50 rMOH B
From the text: as §1, §2, §3, §4, §5

[9] = test system: Human cervical carcinoma cells (HeLa); experiment: MTS cytotoxicity assay, HeLa cells; type: cell-based; conditions: 3 days, average of three experiments

Structure (SMILES) | EC50 [1] [µM] | EC50 [2] [µM] | inhibition of VA387 binding to the B antigen [2] | EC50 [3] [µM] | inhibition of VA387 binding to the H antigen [3] | blocking of Norwalk virus binding to the A antigen [4] | EC50 [4] [µM] | inhibition of Norwalk virus binding to the H antigen [5] | EC50 [5] [µM] | EC50 [6] [µM] | EC50 [7] [µM] | EC50 [8] [µM] | CC50 [9] [µM]
CCC[n+]1cc(-c2ccccc2)nc(N2CCOCC2)n1.[I-] [Compound 1] | 2.2 | 5.8 | dose-dependant inhibition | 6.8 | dose-dependant inhibition | blocked | 15.6 | inhibited | 18.9 | > 100 | > 100 | > 100 | –
CCOC(=O)C1=C(C)OC(N)=C(C#N)C1c1ccc(OCc2ccc(C)cc2)c([N+](=O)[O-])c1 (stereo not shown) [Compound 2] | 4.8 | 18.6 | dose-dependant inhibition | 11.9 | dose-dependant inhibition | blocked | 22.9 | inhibited | 24.5 | > 100 | 16.5 | 13.3 | 78.6
C=C(SCCNC(=O)NCCCCCCNC(=O)NCCSc1ccccc1O)C(C)=CC [Compound 4] | 8.1 | 13.1 | dose-dependant inhibition | 14.2 | dose-dependant inhibition | blocked | 14.1 | inhibited | 22.6 | > 100 | > 100 | > 100 | –
CCCc1ccc(OCc2ccc(C(=O)N/N=C/c3ccc(Cl)cc3O)o2)cc1 [Compound 5] | 9.1 | 13.5 | dose-dependant inhibition | 7.2 | dose-dependant inhibition | blocked | 18.2 | inhibited | 36.3 | > 100 | > 100 | > 100 | 46.7
O=CC(=O)c1ccc2c(c1)Cc1cc(C(=O)C=O)ccc1-2 [Compound 6] | 9.3 | 44.6 | dose-dependant inhibition | 41.1 | dose-dependant inhibition | – | > 100 | – | > 100 | > 100 | > 100 | > 100 | 52.7
Oc1ccc(C=Nc2nccs2)c(O)c1 [Compound 7] | 9.6 | 26 | dose-dependant inhibition | 7.6 | dose-dependant inhibition | – | > 100 | – | > 100 | > 100 | > 100 | > 100 | –
O=C(/C=C/c1ccc(-c2cc(Cl)cc(Cl)c2)o1)c1cccs1 [Compound 8] | 10.9 | > 100 | did not have any inhibitory activity | > 100 | did not have any inhibitory activity | – | > 100 | – | > 100 | > 100 | > 100 | > 100 | –
Cc1ccc(NC(=O)CC(c2ccccc2)c2ccccc2)cc1C [Compound 9] | 11.7 | > 100 | did not have any inhibitory activity | 47.5 | revealed inhibitory activity | – | > 100 | – | > 100 | > 100 | > 100 | > 100 | 40.3
CC(C)OC(=O)CC(=O)CSc1nc(-c2ccc(F)cc2)cc(-c2cccs2)c1C#N [Compound 10] | 11.8 | 7.9 | dose-dependant inhibition | 7.5 | dose-dependant inhibition | blocked | 35 | inhibited | 19.8 | > 100 | > 100 | > 100 | –
O=C(C(=O)c1ccc(C(=O)c2ccc(C(=O)C(=O)c3ccc(Sc4ccccc4)cc3)cc2)cc1)c1ccc(Sc2ccccc2)cc1 [Compound 11] | 12.8 | 35.3 | dose-dependant inhibition | 26.1 | dose-dependant inhibition | – | > 100 | – | > 100 | > 100 | > 100 | > 100 | –
CCCCc1ccc(NC(=O)c2ccc(C)cc2)cc1 [Compound 12] | 12.8 | 32.5 | dose-dependant inhibition | 28.2 | dose-dependant inhibition | blocked | 53 | – | 47.8 | > 100 | > 100 | > 100 | –
Cc1cc(O)c(Sc2c(O)cc(C)cc2C(C)(C)c2ccccc2)c(C(C)(C)c2ccccc2)c1 [Compound 13] | 13.6 | 49.5 | dose-dependant inhibition | 48.1 | dose-dependant inhibition | – | > 100 | – | > 100 | > 100 | > 100 | > 100 | 70.6
CCCOc1ccc(-c2cc(C(=O)N/N=C/c3ccc(OCC)cc3)[nH]n2)cc1 [Compound 14] | 13.7 | > 100 | did not have any inhibitory activity | > 100 | did not have any inhibitory activity | – | > 100 | – | > 100 | > 100 | > 100 | > 100 | 12.3
FC(F)(F)c1ccc(N/N=C/c2cc(Br)cs2)cc1 [Compound 15] | 14.1 | > 100 | did not have any inhibitory activity | > 100 | did not have any inhibitory activity | blocked | 22.5 | inhibited | > 100 | > 100 | > 100 | > 100 | 7.6
